Where two headings read alike, the source gives them in different places. Starred links: 1 amine or outer side, 2 acyl side, 3 side chain; linkers in the order of their positions; H or OH if unused. Non-standard residues stand in square brackets, D forms with d. Residues, ends and D or L forms follow the SMILES beside them. *: point of attachment. DOTAGA = O=C(O)CN1CCN(CC(=O)O)CCN(C(CCC(=O)*)C(=O)O)CCN(CC(=O)O)CC1; Benzoyl(4-SiFtBu2) = CC(C)(C)[Si](F)(c1ccc(C(=O)*)cc1)C(C)(C)C; DOTA = O=C(O)CN1CCN(CC(=O)O)CCN(CC(=O)*)CCN(CC(=O)O)CC1; X4 = CC(C)(C)[Si](O)(c1ccc(C(=O)*)cc1)C(C)(C)C; d(γGlu) = O=C(O)[C@@H](CCC(=O)[*:2])N[*:1]; 1Nal = N[C@@H](Cc1cccc2ccccc12)C(=O)O; Hyp = O=C(O)[C@@H]1C[C@@H](O)CN1; NMeNle = CCCC[C@H](NC)C(=O)O; PEG4 = NCCOCCOCCOCCOCCC(=O)O; Nle = CCCC[C@H](N)C(=O)O; dDap = NC[C@@H](N)C(=O)O
Experiments:
[1] = n-Octanol-PBS distribution coefficient (logD7.4); assay type: physicochemical; details: pH = 7.4, ^177Lu-labeled
Protocol: Approximately 1 MBq of the labeled tracer was dissolved in 1 mL of a 1/1 mixture (v/v) of phosphate buffered saline (PBS, pH = 7.4) and n-octanol in an Eppendorf tube (1.5 mL). After vigorous mixing of the suspension for 3 min at rt, the vial was centrifuged at 9,000 rpm for 5 min (Biofuge 15, Heraeus Sepatech, Osterode, Germany) and 200 µL aliquots of both layers were measured in a γ-counter. The experiment was repeated at least five times.

CCK-2R = target: T1, CCK-2R (Rattus norvegicus, UniProt P30553); experiment: Determination of IC50: CCK-2R affinity on AR4-2J cells, competition with [^177Lu]Lu-DOTA-PP-F11N; assay type: binding; details: for IC50: AR4-2J cells
T1 construct: The CCK-2R expressing rat pancreatic tumor cells AR4-2J; host or cells: AR4-2J rat pancreatic tumor cells
T1 sequence (P30553 1-452): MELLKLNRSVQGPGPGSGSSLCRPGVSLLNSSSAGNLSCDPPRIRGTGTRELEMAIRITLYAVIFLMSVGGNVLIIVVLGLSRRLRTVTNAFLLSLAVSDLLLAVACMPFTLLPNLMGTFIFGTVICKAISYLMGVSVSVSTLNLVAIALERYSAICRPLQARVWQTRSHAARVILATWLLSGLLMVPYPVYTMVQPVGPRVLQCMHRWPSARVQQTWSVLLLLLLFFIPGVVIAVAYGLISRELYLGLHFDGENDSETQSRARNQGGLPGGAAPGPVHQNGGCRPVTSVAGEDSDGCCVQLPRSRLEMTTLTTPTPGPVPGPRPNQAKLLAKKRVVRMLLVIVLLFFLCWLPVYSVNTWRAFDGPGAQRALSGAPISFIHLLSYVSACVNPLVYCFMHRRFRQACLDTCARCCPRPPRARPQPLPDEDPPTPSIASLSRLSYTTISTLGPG
Outline: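 Competitive displacement of 0.3 pmol/well [177Lu]Lu-DOTA-PP-F11N by compounds (10^-10 to 10^-4 M) on AR4-2J cells in BSA-supplemented medium, 3 h at 37 °C. Free label was collected from medium plus PBS rinse, and cell-bound label was recovered with 1 M NaOH, both measured by γ-counter. Each IC50 was determined twice, in triplicate.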

[2] = read-out: IC50 [nM] (n = 3), ^natLu-labeled, ^natLu-labeled

| IC50 (CCK-2R; references ^natLu-labeled, other peptides without chelator, read-out: IC50 [nM] (n = 3)) | IC50 value, fold lower than [^natLu]Lu-DOTA-PP-F11N (CCK-2R; ^natLu-labeled) | Compound | logD7.4 (n ≥ 5), ^177Lu-labeled [1] | IC50 (CCK-2R; [2]) |
| --- | --- | --- | --- | --- |
| – | – | CCCC[C@H](NC(=O)[C@H](Cc1c[nH]c2ccccc12)NC(=O)CNC(=O)[C@H](Cc1ccc(O)cc1)NC(=O)[C@H](C)NC(=O)CC[C@@H](NC(=O)CC[C@@H](NC(=O)CC[C@@H](NC(=O)CC[C@@H](NC(=O)CC[C@@H](NC(=O)CC[C@@H](NC(=O)CCCNC(=O)CCCNC(=O)[C@@H](CNC(=O)c1ccc([Si](F)(C(C)(C)C)C(C)(C)C)cc1)NC(=O)CN1CCN(CC(=O)O)CCN(CC(=O)O)CCN(CC(=O)O)CC1)C(=O)O)C(=O)O)C(=O)O)C(=O)O)C(=O)O)C(=O)O)C(=O)N[C@@H](CC(=O)O)C(=O)N[C@@H](Cc1ccccc1)C(N)=O [DOTA-MG-SiFA-45, DOTA-dap(SiFA)-(GABA)2-(γ-glu)6-F11N] | −1.98 ± 0.02 | 3.15 ± 0.12 nM |
| – | – | CCCC[C@H](NC(=O)[C@H](Cc1c[nH]c2ccccc12)NC(=O)CNC(=O)[C@H](Cc1ccc(O)cc1)NC(=O)[C@H](C)NC(=O)CC[C@@H](NC(=O)CC[C@@H](NC(=O)CC[C@@H](NC(=O)CC[C@@H](NC(=O)CC[C@@H](NC(=O)CCCNC(=O)CCCNC(=O)CCCNC(=O)[C@@H](CNC(=O)c1ccc([Si](F)(C(C)(C)C)C(C)(C)C)cc1)NC(=O)CN1CCN(CC(=O)O)CCN(CC(=O)O)CCN(CC(=O)O)CC1)C(=O)O)C(=O)O)C(=O)O)C(=O)O)C(=O)O)C(=O)N[C@@H](CC(=O)O)C(=O)N[C@@H](Cc1ccccc1)C(N)=O [DOTA-MG-SiFA-46, DOTA-dap(SiFA)-(GABA)3-(γ-glu)5-F11N] | −2.09 ± 0.07 | 5.52 ± 0.25 nM |
| – | – | CCCC[C@H](NC(=O)[C@H](Cc1c[nH]c2ccccc12)NC(=O)CNC(=O)[C@H](Cc1ccc(O)cc1)NC(=O)[C@H](C)NC(=O)CC[C@@H](NC(=O)CCCNC(=O)CC[C@@H](NC(=O)CCCNC(=O)CC[C@@H](NC(=O)CCCNC(=O)CC[C@@H](NC(=O)CCCNC(=O)[C@@H](CNC(=O)c1ccc([Si](F)(C(C)(C)C)C(C)(C)C)cc1)NC(=O)CN1CCN(CC(=O)O)CCN(CC(=O)O)CCN(CC(=O)O)CC1)C(=O)O)C(=O)O)C(=O)O)C(=O)O)C(=O)N[C@@H](CC(=O)O)C(=O)N[C@@H](Cc1ccccc1)C(N)=O [DOTA-MG-SiFA-47, DOTA-dap(SiFA)-(GABA-γ-glu)4-F11N] | −1.93 ± 0.08 | 6.77 ± 1.01 nM |
| 7.5 ± 0.5 nM | 1.7 fold | CCCC[C@H](NC(=O)[C@H](Cc1c[nH]c2ccccc12)NC(=O)CNC(=O)[C@H](Cc1ccc(O)cc1)NC(=O)[C@H](C)NC(=O)CC[C@@H](NC(=O)CC[C@@H](NC(=O)CC[C@@H](NC(=O)CC[C@@H](NC(=O)CC[C@@H](NC(=O)CC[C@@H](NC(=O)CN1CCN(CC(=O)O)CCN(CC(=O)O)CCN(CC(=O)O)CC1)C(=O)O)C(=O)O)C(=O)O)C(=O)O)C(=O)O)C(=O)O)C(=O)N[C@@H](CC(=O)O)C(=O)N[C@@H](Cc1ccccc1)C(N)=O [DOTA-PP-γ-F11N, DOTA-γ-glu^1-γ-glu^2-γ-glu^3-γ-glu^4-γ-glu^5-γ-glu^6-Ala^7-Tyr^8-Gly^9-Trp^10-Nle^11-Asp^12-Phe^13-NH2, reference compound] ({DOTA-d(γGlu)-d(γGlu)-d(γGlu)-d(γGlu)-d(γGlu)-d(γGlu)}-AYGW[Nle]DF-NH2) | −4.38 ± 0.05 | – |
| – | – | CCCC[C@@H](C(=O)N[C@@H](CC(=O)O)C(=O)N[C@@H](Cc1cccc2ccccc12)C(N)=O)N(C)C(=O)[C@H](Cc1c[nH]c2ccccc12)NC(=O)CCOCCOCCOCCOCCNC(=O)CC[C@@H](NC(=O)[C@@H]1C[C@@H](O)CN1C(=O)[C@@H]1C[C@@H](O)CN1C(=O)[C@@H]1C[C@@H](O)CN1C(=O)[C@@H]1C[C@@H](O)CN1C(=O)[C@@H]1C[C@@H](O)CN1C(=O)[C@@H]1C[C@@H](O)CN1C(=O)CC[C@@H](NC(=O)[C@@H](CNC(=O)c1ccc([Si](O)(C(C)(C)C)C(C)(C)C)cc1)NC(=O)CN1CCN(CC(=O)O)CCN(CC(=O)O)CCN(CC(=O)O)CC1)C(=O)O)C(=O)O [DOTA-rhCCK-84.2, DOTA-dap(SiOH)-γ-glu-(Hyp)6-γ-glu-(PEG)3-Trp-(N-Me)Nle-Asp-1-Nal-NH2] ({DOTA}-[dDap](X4)[d(γGlu)][Hyp][Hyp][Hyp][Hyp][Hyp][Hyp][d(γGlu)][PEG4]W[NMeNle]D[1Nal]-NH2) | −2.21 ± 0.08 | 13 ± 0.8 nM |
| – | – | CCCC[C@H](NC(=O)[C@H](Cc1c[nH]c2ccccc12)NC(=O)CNC(=O)[C@H](Cc1ccc(O)cc1)NC(=O)[C@H](C)NC(=O)[C@@H](CNC(=O)c1ccc([Si](F)(C(C)(C)C)C(C)(C)C)cc1)NC(=O)[C@@H](CCC(=O)O)NC(=O)[C@@H](CCC(=O)O)NC(=O)[C@@H](CCC(=O)O)NC(=O)[C@@H](CCC(=O)O)NC(=O)[C@@H](CCC(=O)O)NC(=O)[C@@H](CCC(=O)O)NC(=O)CCC(C(=O)O)N1CCN(CC(=O)O)CCN(CC(=O)O)CCN(CC(=O)O)CC1)C(=O)N[C@@H](CC(=O)O)C(=O)N[C@@H](Cc1ccccc1)C(N)=O (stereo partly drawn) [DOTAGA-MG-SiFA-5, DOTAGA-glu-[dap(SiFA)^6]F11N] ({DOTAGA}-[dE][dE][dE][dE][dE][dE][dDap](Benzoyl(4-SiFtBu2))AYGW[Nle]DF-NH2) | −1.71 ± 0.10 | 629 ± 48 nM |
| – | – | CCCC[C@H](NC(=O)[C@H](Cc1c[nH]c2ccccc12)NC(=O)CNC(=O)[C@H](Cc1ccc(O)cc1)NC(=O)[C@H](C)NC(=O)[C@@H](CCC(=O)O)NC(=O)[C@@H](CNC(=O)c1ccc([Si](F)(C(C)(C)C)C(C)(C)C)cc1)NC(=O)[C@@H](CCC(=O)O)NC(=O)[C@@H](CCC(=O)O)NC(=O)[C@@H](CCC(=O)O)NC(=O)[C@@H](CCC(=O)O)NC(=O)[C@@H](CCC(=O)O)NC(=O)CCC(C(=O)O)N1CCN(CC(=O)O)CCN(CC(=O)O)CCN(CC(=O)O)CC1)C(=O)N[C@@H](CC(=O)O)C(=O)N[C@@H](Cc1ccccc1)C(N)=O (stereo partly drawn) [DOTAGA-MG-SiFA-6, DOTAGA-glu-[dap(SiFA)^5]F11N] ({DOTAGA}-[dE][dE][dE][dE][dE][dDap](Benzoyl(4-SiFtBu2))[dE]AYGW[Nle]DF-NH2) | −1.95 ± 0.09 | 155 ± 18 nM |
| – | – | CCCC[C@H](NC(=O)[C@H](Cc1c[nH]c2ccccc12)NC(=O)CNC(=O)[C@H](Cc1ccc(O)cc1)NC(=O)[C@H](C)NC(=O)[C@@H](CCC(=O)O)NC(=O)[C@@H](CCC(=O)O)NC(=O)[C@@H](CNC(=O)c1ccc([Si](F)(C(C)(C)C)C(C)(C)C)cc1)NC(=O)[C@@H](CCC(=O)O)NC(=O)[C@@H](CCC(=O)O)NC(=O)[C@@H](CCC(=O)O)NC(=O)[C@@H](CCC(=O)O)NC(=O)CCC(C(=O)O)N1CCN(CC(=O)O)CCN(CC(=O)O)CCN(CC(=O)O)CC1)C(=O)N[C@@H](CC(=O)O)C(=O)N[C@@H](Cc1ccccc1)C(N)=O (stereo partly drawn) [DOTAGA-MG-SiFA-7, DOTAGA-glu-[dap(SiFA)^4]F11N] ({DOTAGA}-[dE][dE][dE][dE][dDap](Benzoyl(4-SiFtBu2))[dE][dE]AYGW[Nle]DF-NH2) | −2.03 ± 0.10 | 156 ± 4 nM |
| – | – | CCCC[C@H](NC(=O)[C@H](Cc1c[nH]c2ccccc12)NC(=O)CNC(=O)[C@H](Cc1ccc(O)cc1)NC(=O)[C@H](C)NC(=O)[C@@H](CCC(=O)O)NC(=O)[C@@H](CCC(=O)O)NC(=O)[C@@H](CCC(=O)O)NC(=O)[C@@H](CNC(=O)c1ccc([Si](F)(C(C)(C)C)C(C)(C)C)cc1)NC(=O)[C@@H](CCC(=O)O)NC(=O)[C@@H](CCC(=O)O)NC(=O)[C@@H](CCC(=O)O)NC(=O)CCC(C(=O)O)N1CCN(CC(=O)O)CCN(CC(=O)O)CCN(CC(=O)O)CC1)C(=O)N[C@@H](CC(=O)O)C(=O)N[C@@H](Cc1ccccc1)C(N)=O (stereo partly drawn) [DOTAGA-MG-SiFA-8, DOTAGA-glu-[dap(SiFA)^3]F11N] ({DOTAGA}-[dE][dE][dE][dDap](Benzoyl(4-SiFtBu2))[dE][dE][dE]AYGW[Nle]DF-NH2) | −2.19 ± 0.08 | 185 ± 14 nM |
| – | – | CCCC[C@H](NC(=O)[C@H](Cc1c[nH]c2ccccc12)NC(=O)CNC(=O)[C@H](Cc1ccc(O)cc1)NC(=O)[C@H](C)NC(=O)[C@@H](CCC(=O)O)NC(=O)[C@@H](CCC(=O)O)NC(=O)[C@@H](CCC(=O)O)NC(=O)[C@@H](CCC(=O)O)NC(=O)[C@@H](CNC(=O)c1ccc([Si](F)(C(C)(C)C)C(C)(C)C)cc1)NC(=O)[C@@H](CCC(=O)O)NC(=O)[C@@H](CCC(=O)O)NC(=O)CCC(C(=O)O)N1CCN(CC(=O)O)CCN(CC(=O)O)CCN(CC(=O)O)CC1)C(=O)N[C@@H](CC(=O)O)C(=O)N[C@@H](Cc1ccccc1)C(N)=O (stereo partly drawn) [DOTAGA-MG-SiFA-9, DOTAGA-glu-[dap(SiFA)^2]F11N] ({DOTAGA}-[dE][dE][dDap](Benzoyl(4-SiFtBu2))[dE][dE][dE][dE]AYGW[Nle]DF-NH2) | −2.67 ± 0.05 | 90 ± 2.3 nM |
